In PubChem BioAssay (NCI):
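Here, GI50 denotes the concentration required for 50% inhibition of growth. TGI is the concentration that stops growth completely.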

Key:
Assay in all cases: NCI anticancer screen, dose series, 384-well format
[1] = system: SK-MEL-5 melanoma
[2] = system: HCT-15 colon
[3] = system: UO-31 renal
[4] = system: OVCAR-8 ovarian
[5] = system: SNB-19 CNS
[6] = system: RPMI-8226 leukemia
[7] = system: SR leukemia
[8] = system: OVCAR-5 ovarian
[9] = system: NCI-H460 NSCLC
[10] = system: PC-3 prostate
[11] = system: LOX IMVI melanoma
[12] = system: U251 glioblastoma
[13] = system: T-47D breast
[14] = system: MDA-MB-435 melanoma
[15] = system: SK-OV-3 ovarian
[16] = system: HOP-62 NSCLC
[17] = system: CCRF-CEM leukemia
[18] = system: DU-145 prostate
[19] = system: MDA-MB-231 breast
[20] = system: A498 renal
[21] = system: NCI-H522 lung
[22] = system: OVCAR-4 ovarian
[23] = system: HS 578T breast
[24] = system: K-562 leukemia
[25] = system: SNB-75 CNS
[26] = system: NCI-H322M lung
[27] = system: MOLT-4 leukemia
[28] = system: NCI-H226 lung
[29] = system: EKVX NSCLC
[30] = system: MALME-3M melanoma
[31] = system: RXF 393 renal
[32] = system: KM12 colon
[33] = system: IGROV1 ovarian
[34] = system: TK-10 renal
[35] = system: A549 NSCLC
[36] = system: HL-60(TB) leukemia
[37] = system: HCT-116 colon
[38] = system: SF-539 CNS
[39] = system: NCI-H23 lung
[40] = system: BT-549 breast
[41] = system: SF-295 CNS
[42] = system: SK-MEL-2 melanoma
[43] = system: SK-MEL-28 melanoma
[44] = system: OVCAR-3 ovarian
[45] = system: ACHN renal
[46] = system: M14 melanoma
[47] = system: HCC-2998 colon
[48] = system: HOP-92 NSCLC
[49] = system: 786-0 renal
[50] = system: MDA-MB-468 breast
[51] = system: CAKI-1 renal
[52] = system: NCI/ADR-RES ovarian
[53] = system: COLO 205 colon
[54] = system: SW-620 colon
[55] = system: UACC-257 melanoma
[56] = system: UACC-62 melanoma
[57] = system: SN12C renal
[58] = system: SF-268 CNS

## CC[C@@]1(O)C(=O)OCc2c1cc1n(c2=O)Cc2c-1nc1cc(F)c(C)c3c1c2[C@@H](NC(=O)CO)CC3
[1]
  GI50: < 0.01 µM
  TGI: 0.0164 µM
[2]
  GI50: 0.0175 µM
  TGI: 1.18 µM
[3]
  GI50: 0.0206 µM
  TGI: 0.116 µM
[4]
  GI50: < 0.01 µM
  TGI: 0.104 µM
[5]
  GI50: < 0.01 µM
  TGI: 0.0127 µM
[6]
  GI50: < 0.01 µM
  TGI: 0.0206 µM
[7]
  GI50: < 0.01 µM
  TGI: < 0.01 µM
[8]
  GI50: 0.0352 µM
  TGI: 0.268 µM
[9]
  GI50: < 0.01 µM
  TGI: 0.0234 µM
[10]
  GI50: 0.0973 µM
  TGI: 3.88 µM
[11]
  GI50: < 0.01 µM
  TGI: 0.0375 µM
[12]
  GI50: < 0.01 µM
  TGI: 0.0136 µM
[13]
  GI50: < 0.01 µM
  TGI: 0.101 µM
[14]
  GI50: 0.0243 µM
  TGI: 0.467 µM
[15]
  GI50: < 0.01 µM
  TGI: 0.0281 µM
[16]
  GI50: < 0.01 µM
  TGI: < 0.01 µM
[17]
  GI50: < 0.01 µM
  TGI: < 0.01 µM
[18]
  GI50: < 0.01 µM
  TGI: < 0.01 µM
[19]
  GI50: 0.0996 µM
  TGI: 1.52 µM
[20]
  GI50: < 0.01 µM
  TGI: 0.142 µM
[21]
  GI50: < 0.01 µM
  TGI: 0.019 µM
[22]
  GI50: 0.131 µM
  TGI: 0.419 µM
[23]
  GI50: < 0.01 µM
  TGI: 2.36 µM
[24]
  GI50: < 0.01 µM
  TGI: 0.171 µM
[25]
  GI50: < 0.01 µM
  TGI: 0.0108 µM
[26]
  GI50: 0.0542 µM
  TGI: 0.684 µM
[27]
  GI50: < 0.01 µM
  TGI: < 0.01 µM
[28]
  GI50: < 0.01 µM
  TGI: 0.0496 µM
[29]
  GI50: 0.0429 µM
  TGI: 2.65 µM
[30]
  GI50: < 0.01 µM
  TGI: 0.237 µM
[31]
  GI50: < 0.01 µM
  TGI: < 0.01 µM
[32]
  GI50: 0.0116 µM
  TGI: 0.149 µM
[33]
  GI50: 0.0128 µM
  TGI: 1.14 µM
[34]
  GI50: 0.0476 µM
  TGI: 1.66 µM
[35]
  GI50: 0.0498 µM
  TGI: 0.944 µM
[36]
  GI50: < 0.01 µM
  TGI: < 0.01 µM
[37]
  GI50: < 0.01 µM
  TGI: 0.159 µM
[38]
  GI50: < 0.01 µM
  TGI: 0.0156 µM
[39]
  GI50: < 0.01 µM
  TGI: < 0.01 µM
[40]
  GI50: < 0.01 µM
  TGI: 0.0402 µM
[41]
  GI50: < 0.01 µM
  TGI: < 0.01 µM
[42]
  GI50: 0.0331 µM
  TGI: 0.105 µM
[43]
  GI50: < 0.01 µM
  TGI: 0.27 µM
[44]
  GI50: < 0.01 µM
  TGI: 0.0384 µM
[45]
  GI50: < 0.01 µM
  TGI: 0.0111 µM
[46]
  GI50: < 0.01 µM
  TGI: 0.0128 µM
[47]
  GI50: 0.0156 µM
  TGI: 0.212 µM
[48]
  GI50: < 0.01 µM
  TGI: 0.0589 µM
[49]
  GI50: < 0.01 µM
  TGI: 0.0101 µM
[50]
  GI50: < 0.01 µM
  TGI: < 0.01 µM
[51]
  GI50: < 0.01 µM
  TGI: 0.103 µM
[52]
  GI50: 0.0536 µM
  TGI: 0.256 µM
[53]
  GI50: < 0.01 µM
  TGI: 0.537 µM
[54]
  GI50: < 0.01 µM
  TGI: 0.223 µM
[55]
  GI50: 0.0194 µM
  TGI: 0.226 µM
[56]
  GI50: < 0.01 µM
  TGI: < 0.01 µM
[57]
  GI50: < 0.01 µM
  TGI: < 0.01 µM
[58]
  GI50: < 0.01 µM
  TGI: < 0.01 µM
